Experimental findings from US8178690B2, “Compounds and methods for inhibiting the interaction of BCL proteins with binding partners” (Infinity Pharmaceuticals, Inc., priority 2006, dated 2012) are described below.

One assay addresses Bcl-2 (Homo sapiens, UniProt P10415). In words: Bcl-2 binding affinity analysis (fluorescence polarization binding assay). The following applies: read-out: BcI2 (Ki, Bcl-2 binding affinity).
Another assay has as its target Bcl-xL (Homo sapiens, UniProt Q07817). The experiment in a line: Bcl-xL binding affinity analysis (fluorescence polarization binding assay). The following applies: read-out: BcI-XI (Ki, Bcl-xL binding affinity).

Chain of Bcl-xL (Q07817 whole entry): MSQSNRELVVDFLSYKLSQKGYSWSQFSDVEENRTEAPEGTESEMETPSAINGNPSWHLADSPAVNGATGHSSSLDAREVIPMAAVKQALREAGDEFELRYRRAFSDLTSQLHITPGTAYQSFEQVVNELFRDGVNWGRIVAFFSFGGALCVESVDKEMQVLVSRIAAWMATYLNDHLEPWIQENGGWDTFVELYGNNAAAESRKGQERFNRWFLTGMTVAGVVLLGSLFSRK
Chain of Bcl-2 (P10415 whole entry): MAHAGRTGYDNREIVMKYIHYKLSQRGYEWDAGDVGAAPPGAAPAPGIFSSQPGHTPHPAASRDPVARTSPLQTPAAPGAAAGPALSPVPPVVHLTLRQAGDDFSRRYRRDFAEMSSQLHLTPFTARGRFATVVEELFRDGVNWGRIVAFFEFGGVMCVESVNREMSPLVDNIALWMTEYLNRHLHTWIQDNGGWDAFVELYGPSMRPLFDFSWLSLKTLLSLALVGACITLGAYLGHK

With `C[C@@H]1[C@@H](NC(=O)[C@@H]2[C@H]([C@H](C)O)[C@H](CO)ON2Cc2cccc(-c3cc(C(=O)N[C@H](CN(C)C)CC(C)(C)C)cc(N(C)C)c3)c2OCC2CC2)C[C@H]2C[C@@H]1C2(C)C` [Compound 33], the Ki on Bcl-2 is < 1 nM; on Bcl-xL, < 1000 nM.
The like results for `COc1c(CN2O[C@@H](CN)[C@@H]([C@H](C)O)[C@H]2C(=O)N[C@H]2C[C@H]3C[C@@H]([C@@H]2C)C3(C)C)cccc1-c1cc(C(=O)N[C@@H](Cc2ccccc2)CN(C)C)cc(N(C)CCO)c1` [Compound 302] were, in that order, < 1 nM and 1000 to 5000 nM.
The like results for `CNC(=O)c1cc(-c2cccc(CN3O[C@@H](CNCc4ccncc4)[C@@H]([C@H](C)O)[C@H]3C(=O)N[C@H]3C[C@H]4C[C@@H]([C@@H]3C)C4(C)C)c2OC)cc(N(C)C)c1` [Compound 82] were, in that order, > 9 nM and > 10000 nM.
The like results for `COc1c(CN2O[C@@H](CO)[C@@H]([C@H](C)O)[C@H]2C(=O)N[C@H]2C[C@H]3C[C@@H]([C@@H]2C)C3(C)C)cccc1-c1cc(C(=O)N[C@@H](Cc2ccccc2)CN(C)C)cc(N(C)CC(=O)N(C)C)c1` [Compound 308] were, in that order, < 1 nM and < 1000 nM.
Turning to `COc1c(CN2O[C@@H](CO)[C@@H]([C@H](C)O)[C@H]2C(=O)N[C@H]2C[C@H]3C[C@@H]([C@@H]2C)C3(C)C)cccc1-c1cc(C(=O)N[C@@H](CC(C)C)CN2CCN(C)CC2)cc(N(C)C)c1` [Compound 314], the results for the Ki on Bcl-2 and on Bcl-xL were < 1 nM and < 1000 nM, respectively.
In the case of `CCN1CCC[C@@H]1CNC(=O)c1cc(-c2cccc(CN3O[C@@H](CN)[C@@H]([C@H](C)O)[C@H]3C(=O)N[C@H]3C[C@H]4C[C@@H]([C@@H]3C)C4(C)C)c2OC)cc(N(C)C)c1` [Compound 60], the inhibitory constant (Ki) on Bcl-2 was < 1 nM; on Bcl-xL, 1000 to 5000 nM.
Consider `COc1c(CN2O[C@@H](CO)[C@@H]([C@H](C)O)[C@H]2C(=O)N[C@H]2C[C@H]3C[C@@H]([C@@H]2C)C3(C)C)cccc1-c1cc(C(=O)N[C@@H](CC(C)C)CN2CCCC2)cc(N(C)C)c1` [Compound 320], for which the values for the Ki at Bcl-2 and at Bcl-xL were < 1 nM and < 1000 nM, respectively.
The like results for `COc1c(CN2O[C@@H](CO)[C@@H]([C@H](C)O)[C@H]2C(=O)N[C@H]2C[C@H]3C[C@@H]([C@@H]2C)C3(C)C)cccc1-c1cc2c(c(C(=O)N[C@H](CN(C)C)CC(C)(C)C)c1)OCO2` [Compound 202] were, in that order, < 1 nM and < 1000 nM.
Take `COC[C@@H](Cc1ccccc1)NC(=O)c1cc(-c2cccc(CN3O[C@@H](CO)[C@@H]([C@H](C)O)[C@H]3C(=O)N[C@H]3C[C@H]4C[C@@H]([C@@H]3C)C4(C)C)c2OC)cc(N(C)C)c1` [Compound 12]: the Ki lay within 5 to 9 nM at Bcl-2 and 5000 to 10000 nM at Bcl-xL.
Take `COc1c(CN2O[C@@H](CO)[C@@H]([C@H](C)O)[C@H]2C(=O)N[C@H]2C[C@H]3C[C@@H]([C@@H]2C)C3(C)C)cccc1-c1cc(C(=O)N[C@@H](CC(C)C)CN(C)C)cc([N+](=O)[O-])c1` [Compound 263]: the Ki at Bcl-2 was < 1 nM; at Bcl-xL it was < 1000 nM.
Take `COc1c(CN2O[C@@H](CN)[C@@H]([C@H](C)O)[C@H]2C(=O)N[C@H]2C[C@H]3C[C@@H]([C@@H]2C)C3(C)C)cccc1-c1cc(C(=O)N[C@@H](CC(C)C)CN(C)C)cc(N(C)C)c1` [Compound 72]: the Ki at Bcl-2 is < 1 nM; on Bcl-xL, < 1000 nM.
The like results for `COc1c(CN2O[C@@H](CN)[C@@H]([C@H](C)O)[C@H]2C(=O)N[C@H]2C[C@H]3C[C@@H]([C@@H]2C)C3(C)C)cccc1-c1cc(C(=O)N[C@H](CN(C)C)CC(C)(C)C)cc(N(C)C)c1` [Compound 61] were, in that order, < 1 nM and < 1000 nM.
For `CCN1CCC[C@@H]1CNC(=O)c1cc(-c2cccc(CN3O[C@@H](CO)[C@@H]([C@H](C)O)[C@H]3C(=O)N[C@H]3C[C@H]4C[C@@H]([C@@H]3C)C4(C)C)c2OC)cc(N(C)C)c1` [Compound 312], in that order: < 1 nM and < 1000 nM.
For the compound `COc1c(CN2O[C@@H](CN)[C@@H]([C@H](C)O)[C@H]2C(=O)N[C@H]2C[C@H]3C[C@@H]([C@@H]2C)C3(C)C)cccc1-c1cc(C(=O)N[C@@H](Cc2cscn2)C(=O)N(C)C)cc(N(C)C)c1` [Compound 67], the Ki was < 1 nM on Bcl-2 and 5000 to 10000 nM at Bcl-xL.
In the case of `COc1c(CN2O[C@@H](CNC(C)=O)[C@@H]([C@H](C)O)[C@H]2C(=O)N[C@H]2C[C@H]3C[C@@H]([C@@H]2C)C3(C)C)cccc1-c1cc(C(=O)N[C@H](CN(C)C)CC(C)(C)C)cc(N(C)C)c1` [Compound 73], the Ki at Bcl-2 is < 1 nM; on Bcl-xL, < 1000 nM.
The like results for `COc1c(CN2O[C@@H](CO)[C@@H]([C@H](C)O)[C@H]2C(=O)N[C@H]2C[C@H]3C[C@@H]([C@@H]2C)C3(C)C)cccc1-c1cc(C(=O)N[C@@H](Cc2ccccc2)CN(C)C)cc(N(C)CCO)c1` [Compound 285] were, in that order, < 1 nM and < 1000 nM.
In the case of `COc1c(CN2O[C@@H](CO)[C@@H]([C@H](C)O)[C@H]2C(=O)N[C@H]2C[C@H]3C[C@@H]([C@@H]2C)C3(C)C)cccc1-c1cc(C(=O)N[C@H](CN(C)C)CC(C)(C)C)c(Br)c(N(C)C)c1` [Compound 257], the Ki at Bcl-2 was < 1 nM; on Bcl-xL, < 1000 nM.
